In patent publication US8895504B2, “Amylin derivatives” (priority 2008, dated 2014):
*1 amine or outer side, *2 acyl side, *3 side chain or, on linkers, in order; H or OH if unused. Where a SMILES comes first, the peptide text is derived from it. Bridges are numbered along the chain shown (N, C = ends). The star is where a group is joined. C20 diacid = O=C(O)CCCCCCCCCCCCCCCCCCC(=O)*; γGlu = O=C(O)[C@H](CCC(=O)[*:2])N[*:1]

The compounds below were run against T1, Amylin 3(a) receptor (human calcitonin receptor (CTa) and RAMP-3) (Homo sapiens, UniProt O60896+P30988) (assay: Luciferase assay (III), BHK Amylin 3(a)//CRE-luc cells). Settings: BHK cells with Amylin 3(a) receptor and CRE luciferase reporter, 4 hours incubation; read-out: Potency Luciferase.
T1 construct: expressed in transfected cells; host or cells: BHK570 cells, stably transfected with a CRE-luciferase reporter
Type: cell-based
How it was run: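 Read-out is CRE-driven luciferase luminescence, taken 30 min after LucLite addition at room temperature. Compounds were incubated 4 h at 37° C in assay medium (10% FBS, 10 mM Hepes, pH 7,4). The cell line is BHK570 co-transfected with human calcitonin receptor CTa and RAMP-3, seeded overnight before use.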

T1 sequence (O60896 24-148): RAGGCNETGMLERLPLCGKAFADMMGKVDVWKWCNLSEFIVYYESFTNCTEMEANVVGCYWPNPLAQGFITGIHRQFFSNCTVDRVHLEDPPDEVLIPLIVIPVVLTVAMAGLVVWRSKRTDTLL
T1 sequence (P30988 25-474): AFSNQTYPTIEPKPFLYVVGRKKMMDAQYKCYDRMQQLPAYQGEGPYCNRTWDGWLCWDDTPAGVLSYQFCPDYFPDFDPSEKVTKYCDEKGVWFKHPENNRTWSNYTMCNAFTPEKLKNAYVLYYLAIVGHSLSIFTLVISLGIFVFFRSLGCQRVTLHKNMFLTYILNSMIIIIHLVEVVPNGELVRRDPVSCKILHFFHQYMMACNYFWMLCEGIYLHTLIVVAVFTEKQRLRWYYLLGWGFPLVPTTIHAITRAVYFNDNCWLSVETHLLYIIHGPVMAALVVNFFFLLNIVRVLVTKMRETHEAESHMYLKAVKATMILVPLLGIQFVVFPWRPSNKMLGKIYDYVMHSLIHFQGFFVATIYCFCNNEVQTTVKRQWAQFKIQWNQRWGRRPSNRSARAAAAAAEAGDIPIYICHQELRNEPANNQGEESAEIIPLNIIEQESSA

| EC50 [nM] | SMILES |
| --- | --- |
| 0.06 | CC[C@H](C)[C@H](NC(=O)[C@@H]1CCCN1C(=O)CNC(=O)[C@H](Cc1ccccc1)NC(=O)[C@H](CC(N)=O)NC(=O)[C@H](CC(N)=O)NC(=O)[C@H](CO)NC(=O)[C@H](CO)NC(=O)[C@H](Cc1c[nH]cn1)NC(=O)[C@H](Cc1c[nH]cn1)NC(=O)[C@H](CC(C)C)NC(=O)[C@H](Cc1ccccc1)NC(=O)[C@H](CC(N)=O)NC(=O)[C@H](C)NC(=O)[C@H](CC(C)C)NC(=O)[C@H](CCCNC(=N)N)NC(=O)[C@H](CCC(N)=O)NC(=O)[C@@H](NC(=O)[C@H](C)NC(=O)[C@@H]1CSSC[C@H](NC(=O)CC[C@H](NC(=O)CCCCCCCCCCCCCCCCCCC(=O)O)C(=O)O)C(=O)N[C@@H](CC(N)=O)C(=O)N[C@@H]([C@@H](C)O)C(=O)N[C@@H](C)C(=O)N[C@@H]([C@@H](C)O)C(=O)N1)[C@@H](C)O)C(=O)N[C@@H](CC(C)C)C(=O)N1CCC[C@H]1C(=O)N1CCC[C@H]1C(=O)N[C@H](C(=O)N[C@@H](CC(=O)O)C(=O)N[C@H](C(=O)NCC(=O)N[C@@H](CO)C(=O)N[C@@H](CC(N)=O)C(=O)N[C@H](C(=O)N[C@@H](Cc1ccc(O)cc1)C(N)=O)[C@@H](C)O)C(C)C)[C@@H](C)O [Example 53, N-alpha-[(S)-4-Carboxy-4-(19-carboxynonadecanoylamino)butyryl]-[His17,Asp31]-pramlintide (2-37)] ({C20 diacid-γGlu}-CNTATCATQRLANFLHHSSNNFGPILPPTDVGSNTY-NH2; disulfide 1-6) |
| 0.4 | CC[C@H](C)[C@H](NC(=O)[C@@H]1CCCN1C(=O)CNC(=O)[C@H](Cc1ccccc1)NC(=O)[C@H](CC(N)=O)NC(=O)[C@H](CC(N)=O)NC(=O)[C@H](CO)NC(=O)[C@H](CO)NC(=O)[C@H](Cc1c[nH]cn1)NC(=O)CNC(=O)[C@H](CC(C)C)NC(=O)[C@H](Cc1ccccc1)NC(=O)[C@H](CC(N)=O)NC(=O)[C@H](C)NC(=O)[C@H](CC(C)C)NC(=O)[C@H](CCCNC(=N)N)NC(=O)[C@H](CCC(N)=O)NC(=O)[C@@H](NC(=O)[C@H](C)NC(=O)[C@@H]1CSSC[C@H](NC(=O)CC[C@H](NC(=O)CCCCCCCCCCCCCCCCCCC(=O)O)C(=O)O)C(=O)N[C@@H](CC(N)=O)C(=O)N[C@@H]([C@@H](C)O)C(=O)N[C@@H](C)C(=O)N[C@@H]([C@@H](C)O)C(=O)N1)[C@@H](C)O)C(=O)N[C@@H](CC(C)C)C(=O)N1CCC[C@H]1C(=O)N1CCC[C@H]1C(=O)N[C@H](C(=O)N[C@@H](CC(N)=O)C(=O)N[C@H](C(=O)NCC(=O)N[C@@H](CO)C(=O)N[C@@H](CC(N)=O)C(=O)N[C@H](C(=O)N[C@@H](Cc1ccc(O)cc1)C(N)=O)[C@@H](C)O)C(C)C)[C@@H](C)O [Example 13, N-alpha-[(S)-4-Carboxy-4-(19-carboxynonadecanoylamino)butyryl]-[Gly17]-pramlintide (2-37)] ({C20 diacid-γGlu}-CNTATCATQRLANFLGHSSNNFGPILPPTNVGSNTY-NH2; disulfide 1-6) |
| 0.6 | CC(C)C[C@H](NC(=O)[C@H](CCCNC(=N)N)NC(=O)[C@H](CCC(N)=O)NC(=O)[C@@H](NC(=O)[C@H](C)NC(=O)[C@@H]1CSSC[C@H](NC(=O)[C@H](CCC(=O)O)NC(=O)[C@H](CCCNC(=N)N)NC(=O)[C@H](CCC(=O)O)NC(=O)CC[C@H](NC(=O)CCCCCCCCCCCCCCCCCCC(=O)O)C(=O)O)C(=O)N[C@@H](CC(N)=O)C(=O)N[C@@H]([C@@H](C)O)C(=O)N[C@@H](C)C(=O)N[C@@H]([C@@H](C)O)C(=O)N1)[C@@H](C)O)C(=O)N[C@@H](C)C(=O)N[C@@H](CC(=O)O)C(=O)N[C@@H](Cc1ccccc1)C(=O)N[C@@H](CC(C)C)C(=O)N[C@@H](Cc1c[nH]cn1)C(=O)N[C@@H](Cc1c[nH]cn1)C(=O)N[C@@H](CO)C(=O)N[C@@H](CO)C(=O)N[C@@H](CC(N)=O)C(=O)N[C@@H](CC(N)=O)C(=O)N[C@@H](Cc1ccccc1)C(=O)NCC(=O)N[C@@H](C)C(=O)N1CCC[C@H]1C(=O)N[C@@H](CC(C)C)C(=O)N[C@@H](CO)C(=O)N[C@@H](CO)C(=O)N[C@H](C(=O)N[C@@H](CC(N)=O)C(=O)N[C@H](C(=O)NCC(=O)N[C@@H](CO)C(=O)N[C@@H](CC(N)=O)C(=O)N[C@H](C(=O)N[C@@H](Cc1ccc(O)cc1)C(N)=O)[C@@H](C)O)C(C)C)[C@@H](C)O [Example 42, N-alpha-[(S)-4-Carboxy-4-(19-carboxynonadecanoylamino)butyryl]-Glu-Arg-[Glu1,Asp14,His17,Ala25,Pro26,Ser28,Ser29]-pramlintide] ({C20 diacid-γGlu}-ERECNTATCATQRLADFLHHSSNNFGAPLSSTNVGSNTY-NH2; disulfide 4-9) |
| 0.07 | CC[C@H](C)[C@H](NC(=O)[C@@H]1CCCN1C(=O)CNC(=O)[C@H](Cc1ccccc1)NC(=O)[C@H](CC(N)=O)NC(=O)[C@H](CC(N)=O)NC(=O)[C@H](CO)NC(=O)[C@H](CO)NC(=O)[C@H](Cc1c[nH]cn1)NC(=O)[C@H](Cc1c[nH]cn1)NC(=O)[C@H](CC(C)C)NC(=O)[C@H](Cc1ccccc1)NC(=O)[C@H](CC(N)=O)NC(=O)[C@H](C)NC(=O)[C@H](CC(C)C)NC(=O)[C@H](CCCNC(=N)N)NC(=O)[C@H](CCC(N)=O)NC(=O)[C@@H](NC(=O)[C@H](C)NC(=O)[C@@H]1CSSC[C@H](NC(=O)[C@H](CCCNC(=N)N)NC(=O)[C@H](CCCCN)NC(=O)[C@H](CCC(=O)O)NC(=O)CCCCCCCCCCCCCCCCCCC(=O)O)C(=O)N[C@@H](CC(N)=O)C(=O)N[C@@H]([C@@H](C)O)C(=O)N[C@@H](C)C(=O)N[C@@H]([C@@H](C)O)C(=O)N1)[C@@H](C)O)C(=O)N[C@@H](CC(C)C)C(=O)N1CCC[C@H]1C(=O)N1CCC[C@H]1C(=O)N[C@H](C(=O)N[C@@H](CC(N)=O)C(=O)N[C@H](C(=O)NCC(=O)N[C@@H](CO)C(=O)N[C@@H](CC(N)=O)C(=O)N[C@H](C(=O)N[C@@H](Cc1ccc(O)cc1)C(N)=O)[C@@H](C)O)C(C)C)[C@@H](C)O [Example 8, N-alpha-[19-carboxynonadecanoyl]-Glu-Lys-[Arg1,His17]-pramlintide] ({C20 diacid}-EKRCNTATCATQRLANFLHHSSNNFGPILPPTNVGSNTY-NH2; disulfide 4-9) |
| 0.1 | CC[C@H](C)[C@H](NC(=O)[C@@H]1CCCN1C(=O)CNC(=O)[C@H](Cc1ccccc1)NC(=O)[C@H](CC(N)=O)NC(=O)[C@H](CC(N)=O)NC(=O)[C@H](CO)NC(=O)[C@H](CO)NC(=O)[C@H](Cc1c[nH]cn1)NC(=O)[C@H](C)NC(=O)[C@H](CC(C)C)NC(=O)[C@H](Cc1ccccc1)NC(=O)[C@H](CC(N)=O)NC(=O)[C@H](C)NC(=O)[C@H](CC(C)C)NC(=O)[C@H](CCCNC(=N)N)NC(=O)[C@H](CCC(N)=O)NC(=O)[C@@H](NC(=O)[C@H](C)NC(=O)[C@@H]1CSSC[C@H](NC(=O)CC[C@H](NC(=O)CCCCCCCCCCCCCCCCCCC(=O)O)C(=O)O)C(=O)N[C@@H](CC(N)=O)C(=O)N[C@@H]([C@@H](C)O)C(=O)N[C@@H](C)C(=O)N[C@@H]([C@@H](C)O)C(=O)N1)[C@@H](C)O)C(=O)N[C@@H](CC(C)C)C(=O)N1CCC[C@H]1C(=O)N1CCC[C@H]1C(=O)N[C@H](C(=O)N[C@@H](CC(N)=O)C(=O)N[C@H](C(=O)NCC(=O)N[C@@H](CO)C(=O)N[C@@H](CC(N)=O)C(=O)N[C@H](C(=O)N[C@@H](Cc1ccc(O)cc1)C(N)=O)[C@@H](C)O)C(C)C)[C@@H](C)O [Example 12, N-alpha-[(S)-4-Carboxy-4-(19-carboxynonadecanoylamino)butyryl]-[Ala17]-pramlintide (2-37)] ({C20 diacid-γGlu}-CNTATCATQRLANFLAHSSNNFGPILPPTNVGSNTY-NH2; disulfide 1-6) |
| 0.1 | CC[C@H](C)[C@H](NC(=O)[C@@H]1CCCN1C(=O)CNC(=O)[C@H](Cc1ccccc1)NC(=O)[C@H](CC(N)=O)NC(=O)[C@H](CC(N)=O)NC(=O)[C@H](CO)NC(=O)[C@H](CO)NC(=O)[C@H](Cc1c[nH]cn1)NC(=O)[C@H](C)NC(=O)[C@H](CC(C)C)NC(=O)[C@H](Cc1ccccc1)NC(=O)[C@H](CC(N)=O)NC(=O)[C@H](C)NC(=O)[C@H](CC(C)C)NC(=O)[C@H](CCCNC(=N)N)NC(=O)[C@H](CCC(N)=O)NC(=O)[C@@H](NC(=O)[C@H](C)NC(=O)[C@@H]1CSSC[C@H](NC(=O)[C@H](CCCCN)NC(=O)[C@H](CCCNC(=N)N)NC(=O)CC[C@H](NC(=O)CCCCCCCCCCCCCCCCCCC(=O)O)C(=O)O)C(=O)N[C@@H](CC(N)=O)C(=O)N[C@@H]([C@@H](C)O)C(=O)N[C@@H](C)C(=O)N[C@@H]([C@@H](C)O)C(=O)N1)[C@@H](C)O)C(=O)N[C@@H](CC(C)C)C(=O)N1CCC[C@H]1C(=O)N1CCC[C@H]1C(=O)N[C@H](C(=O)N[C@@H](CC(N)=O)C(=O)N[C@H](C(=O)NCC(=O)N[C@@H](CO)C(=O)N[C@@H](CC(N)=O)C(=O)N[C@H](C(=O)N[C@@H](Cc1ccc(O)cc1)C(N)=O)[C@@H](C)O)C(C)C)[C@@H](C)O [Example 19, N-alpha-[(S)-4-Carboxy-4-(19-carboxynonadecanoylamino)butyryl]-Arg-[Ala17]-pramlintide] ({C20 diacid-γGlu}-RKCNTATCATQRLANFLAHSSNNFGPILPPTNVGSNTY-NH2; disulfide 3-8) |
